Where two headings read alike, the source gives them in different places.
Test system: S. aureus Mu3
Assay: Secondary screening of compound 13 analogues in combination with gentamicin (growth by OD 595 nm)
Details: for 20 μM + 200 μg/ml Gentamicin Growth inhibition Percentage: 20 μM compound + 200 μg/ml gentamicin; for inhibition at 50 µM / activity at 5 µM / activity at 20 µM / activity at 50 µM / inhibition at 20 µM: Staphylococcus aureus; for activity at 5 µM / activity at 20 µM / activity at 50 µM: MU3, 16 h; for 50 μM + 200 μg/ml Gentamicin Growth inhibition Percentage: 50 μM compound + 200 μg/ml gentamicin
[1] = [Cpd] 5 μM, BHI only (no gentamicin), relative to DMSO = 1
[2] = [Cpd] 5 μM, [Genta] 100 ug/ml, relative to DMSO = 1
[3] = [Cpd] 5 μM, [Genta] 200 ug/ml, relative to DMSO = 1
[4] = [Cpd] 20 μM, BHI only (no gentamicin), relative to DMSO = 1
[5] = [Cpd] 20 μM, [Genta] 100 ug/ml, relative to DMSO = 1
[6] = [Cpd] 20 μM, [Genta] 200 ug/ml, relative to DMSO = 1
[7] = [Cpd] 50 μM, BHI only (no gentamicin), relative to DMSO = 1
[8] = [Cpd] 50 μM, [Genta] 100 ug/ml, relative to DMSO = 1
[9] = [Cpd] 50 μM, [Genta] 200 ug/ml, relative to DMSO = 1
[10] = MU3, read-out: 50 μM + 200 μg/ml Gentamicin Growth inhibition Percentage, 50 μM compound + 200 μg/ml gentamicin, S. aureus Mu3
[11] = MU3, read-out: 20 μM + 200 μg/ml Gentamicin Growth inhibition Percentage
[12] = MU3, read-out: 50 μM + 200 μg/ml Gentamicin Growth inhibition Percentage
[13] = read-out: relative growth, [Cpd] 5 μM, BHI only (no gentamicin), relative to DMSO = 1
[14] = read-out: relative growth, [Cpd] 20 μM, BHI only (no gentamicin), relative to DMSO = 1
[15] = read-out: relative growth, [Cpd] 50 μM, BHI only (no gentamicin), relative to DMSO = 1

Method: All screening is done in 384-well polystyrene microtiter plates (Greiner Bio-One). Overnight culture of Mu3 is washed with BHI medium 3 times, diluted and plated to give 5×10^5 CFU/mL per well. The plates are incubated at 37° C. for 16 hours and growth is monitored by optical density reading at 595 nm using an automated DTX 880 multimode detector. Screening using BHI medium is designated as the background screen. […] Sub MIC concentration of antibiotics is selected for screening. BHI containing a final concentration for gentamicin 156.25 μg/mL is used correspondingly for individual experiments. […] Screening results with various antibiotics is normalized with the background screening to calculate the percentage of growth inhibition.
Identical experimental procedures are performed as primary screening procedures, except different concentrations of selected compound are tested.
Secondary like screening was performed with different concentrations of each analogue compounds were tested with different gentamicin concentration, 50 μM, 20 μM and 5 μM compound concentration were used against, BHI containing, 0 μg/ml, 100 μg/ml and 200 μg/ml gentamicin.

Structure (SMILES)	relative growth [2]	relative growth [3]	relative growth [5]	relative growth [6]	relative growth [8]	relative growth [9]	activity at 5 µM (read-out: relative growth)	activity at 20 µM (read-out: relative growth)	activity at 50 µM (read-out: relative growth)	inhibition at 20 µM [11]	inhibition at 50 µM [12]	other results
O=C(O)CN1C(=O)/C(=C/c2ccccc2)SC1=S [Compound 1]	1.29	1.45	1.1	1.05	1.11	1.01	–	–	–	–	–	relative growth [1]: 1.38; relative growth [4]: 1.22; relative growth [7]: 1
COC(=O)c1ccccc1 [Compound 2]	1.1	1.2	0.93	0.65	0.62	*0.24	–	–	–	–	–	20 μM + 200 μg/ml Gentamicin Growth inhibition Percentage (S. aureus Mu3, 20 µM): 35%; inhibition at 50 µM [10]: 76%; relative growth [1]: 1.15; relative growth [4]: 1.08; relative growth [7]: 1.07
COc1cc(/C=C2\SC(=S)N(CC(=O)O)C2=O)ccc1OCc1ccc(Cl)cc1 [Compound 6]	1.13	1.11	0.61	*0.1	*0.2	*0.11	120%	114%	79%	90%	89%	–
COc1ccc(/C=C2\SC(=S)N(CC(=O)O)C2=O)cc1OCc1ccc(Cl)cc1 [Compound 15]	1.01	1	0.52	*0.09	*0.18	*0.11	102%	97%	79%	91%	89%	–
COc1ccc(/C=C2\SC(=S)N(CC(=O)O)C2=O)cc1OCc1ccc(Cl)cc1Cl [Compound 18]	0.97	0.9	0.8	0.76	0.88	0.7	98%	85%	97%	24%	30%	–
COc1cc(/C=C2\SC(=S)N(CC(=O)O)C2=O)ccc1OCc1ccccc1 [Compound 22]	1.08	1.05	0.99	0.88	0.91	0.52	108%	101%	94%	12%	48%	–
COc1ccc(/C=C2\SC(=S)N(CC(=O)O)C2=O)cc1OCc1ccccc1 [Compound 24]	0.94	0.95	0.92	0.73	0.72	*0.32	96%	93%	92%	27%	68%	–
COc1cc(/C=C2\SC(=S)N(CC(=O)O)C2=O)ccc1OCc1ccccc1F [Compound 25]	0.95	0.92	0.89	0.62	0.91	0.42	96%	91%	95%	38%	58%	–
COC(=O)c1ccccc1 [Compound 29]	0.94	0.89	0.67	*0.39	*0.11	*0.08	–	–	–	–	–	20 μM + 200 μg/ml Gentamicin Growth inhibition Percentage (S. aureus Mu3, 20 µM): 61%; 50 μM + 200 μg/ml Gentamicin Growth inhibition Percentage (S. aureus Mu3, 50 µM): 92%; activity at 5 µM [13]: 96%; activity at 20 µM [14]: 90%; activity at 50 µM [15]: 89%
CCOc1ccc(/C=C2\SC(=S)N(CC(=O)O)C2=O)cc1 [Compound 31]	0.98	0.95	0.98	0.77	0.98	0.61	99%	96%	98%	23%	39%	–
CCOc1cc(/C=C2\SC(=S)N(CC(=O)O)C2=O)ccc1OCc1ccc(Cl)c(Cl)c1 [Compound 34]	0.9	*0.24	0.67	*0.33	1.16	0.57	112%	109%	113%	67%	43%	–
COc1cc(/C=C2\SC(=S)N(CC(=O)O)C2=O)ccc1OCc1ccc(Br)cc1 [Compound 44]	1.02	0.83	0.99	0.83	0.97	0.47	103%	103%	98%	17%	53%	–
COc1cc(C=C2SC(=S)N(CC(=O)O)C2=O)ccc1OCc1ccc(F)cc1Cl [Compound 50]	0.91	0.87	0.82	0.64	0.9	0.6	–	–	–	–	–	20 μM + 200 μg/ml Gentamicin Growth inhibition Percentage (S. aureus Mu3): 36%; 50 μM + 200 μg/ml Gentamicin Growth inhibition Percentage (S. aureus Mu3): 40%; relative growth [1]: 0.93; relative growth [4]: 0.82; relative growth [7]: 0.96
COCc1ccccc1 [Compound 52]	0.96	0.93	0.89	0.69	0.74	*0.36	–	–	–	–	–	activity at 5 µM [13]: 95%; activity at 20 µM [14]: 86%; activity at 50 µM [15]: 76%; inhibition at 20 µM (MU3, read-out: 20 μM + 200 μg/ml Gentamicin Growth inhibition Percentage, 20 μM compound + 200 μg/ml gentamicin, S. aureus Mu3): 31%; inhibition at 50 µM [10]: 64%
CC(C(=O)O)N1C(=O)/C(=C/c2ccc(Cl)cc2)SC1=S (centres unmarked) [Compound 53]	0.92	0.89	0.9	0.76	0.84	*0.38	93%	89%	88%	24%	62%	–
O=C(O)CN1C(=O)/C(=C/c2cccc(OCc3ccccc3F)c2)SC1=S [Compound 63]	0.97	0.88	0.67	*0.35	*0.11	*0.08	97%	93%	84%	65%	92%	–
COC(=O)CN1C(=O)C(=Cc2ccc(OCc3ccccc3)cc2)SC1=S [Compound 69]	0.97	0.98	0.56	*0.11	*0.27	*0.23	–	–	–	–	–	20 μM + 200 μg/ml Gentamicin Growth inhibition Percentage (S. aureus Mu3): 89%; 50 μM + 200 μg/ml Gentamicin Growth inhibition Percentage (S. aureus Mu3): 77%; relative growth [1]: 0.97; relative growth [4]: 1.02; relative growth [7]: 0.55
